Data from patent US9855270B2, “Methods and compositions for modulating estrogen receptor mutants” (priority 2014, dated 2018).
Read-outs that look alike come from different tables or passages of the source.

Tests used:
[1] = test system: MCF-7 cells stably expressing ER-α mutants; settings: UbC and EF1-derived lines; agonist mode
Experimental: Potency and efficacy of ERM 1-3 were measured in vitro in ER dependent transcriptional reporter assays and viability assays of MCF-7 cells stably expressing ER-α mutants.
(§1) MCF-7 Mutant ER-α Stable Cell Line Generation: MCF-7 cells stably expressing wild-type or ER-α mutants were generated by subcloning ESR1 wild-type and mutant cDNAs containing an amino terminal hemagglutinin tag into pCDH-EF1-MCS-(PGK-Puro) (referred to as EF1 HA-ER-α) and pCDH-UbC-MCS-EF1-Hygro (referred to as UbC HA-ER-α) (System Biosciences). The resulting plasmids, in addition to an empty vector negative control, were subsequently cotransfected into HEK293T cells with the pPACKH1 packaging plasmid mix (System Biosciences) according to the manufacturer's protocol. Four days post transfection lentiviral particles were purified from the cell medium, tiered and stored at −80° C. MCF-7 cells were transduced with the purified viral particles and stable cell lines were selected by growth in RPMI containing 10% FBS plus 1 μG/mL puromycin or 200 μG/mL hygromycin for pCDH-EF1-MCS-(PGK-Puro) and pCDH-UbC-MCS-EF1-Hygro, respectively.
MCF-7 Stable Cell Line Viability: MCF-7 cells were enumerated with a hemacytometer adjusted to a concentration of 40,000 cells per mL in Phenol Free RPMI containing 10% CSS with NEAA and Sodium Pyruvate. 16 microliters of the cell suspension was added to each well of a 384 well tissue culture treated white clear bottom polystyrene plate (Corning) using a Matrix 16 channel electronic pipette. The cells were incubated overnight to allow the cells to adhere. […] The “average” of the relative luminescence units (RLUs) of the wells are considered to be the baseline value at time=zero. […] The relative luminescence units (RLUs) of each well were measured, and relative proliferation (fold) of each sample was determined as follows: (RLU sample−RLU background)/(RLU at T=0)=relative proliferation
Potency and efficacy of ERM 4-23 were measured in vitro in ER dependent transcriptional reporter assays and viability assays of MCF-7 cells stably expressing ER-α mutants.

[2] = test system: MCF-7 cells transduced with an empty EF1 lentiviral vector (negative control); assay: MCF-7 Stable Cell Line Viability (EF1 HA-ER-α series); assay type: cell-based; parameters: Percent inhibition compared to vehicle: concentration or dose not given beside the values; settings: Receptor None (empty EF1 lentiviral vector); for Efficacy (Emax): Day 5 relative to Day 0; for EC50: read-out: Potency (EC50; nM)
Text: as §1
(§2) MCF-7 Stable Cell Line Viability: MCF-7 cells were enumerated with a hemacytometer adjusted to a concentration of 40,000 cells per mL in Phenol Free RPMI containing 10% CSS with NEAA and Sodium Pyruvate. 16 microliters of the cell suspension was added to each well of a 384 well tissue culture treated white clear bottom polystyrene plate (Corning) using a Matrix 16 channel electronic pipette. The cells were incubated overnight to allow the cells to adhere. The following day, 16 microliters of Phenol Free RPMI containing 10% CSS with NEAA and Sodium Pyruvate was added to the wells of one plate, followed by 16 μL of CellTiter-Glo (Promega, Madison Wis.) luminescent cell viability reagent using a Matrix 16 channel electronic pipette. […] The “average” of the relative luminescence units (RLUs) of the wells are considered to be the baseline value at time=zero. In addition, a 10 point, 1:5 serial dilution in DMSO (Sigma-Aldrich) was performed using Matrix 12 channel electronic pipette, including DMSO only as […]. 4 μL of each dilution was then added to 196 μL of RPMI containing 10% CSS with NEAA and Sodium Pyruvate. 16 μL of medium containing compound was added to the cells at a final concentration ranging from 10 μM to 5 pM. Compound dilution in media and subsequent addition to cells were carried out using Matrix 12 channel electronic pipettes. After 5 day compound exposure, 16 μL of CellTiter-Glo (Promega, Madison Wis.) luminescent cell viability reagent was added to the cells using a Matrix 16 channel electronic pipette. CellTiter-Glo added to 32 μL of medium without cells was used to obtain a background value. […] The relative luminescence units (RLUs) of each well were measured, and relative proliferation (fold) of each sample was determined as follows: (RLU sample−RLU background)/(RLU at T=0)=relative proliferation
(§3) The UbC promoter is reported by the manufacturer (System Biosciences) to express low to moderate RNA levels while the EF1 promoter expresses high levels (System Biosciences).

[3] = test system: MCF-7 cells stably expressing EF1 HA-ER-α wild-type; assay: as above; assay type: cell-based; parameters: Percent inhibition compared to vehicle: concentration or dose not given beside the values; settings: EF1 HA-ER-α Wild-type; for Percent inhibition compared to vehicle: 5-Day Incubation; for Efficacy (Emax): Day 5 relative to Day 0; for EC50: read-out: Potency (EC50; nM)
Text: as §1, §2, §3

[4] = test system: MCF-7 cells stably expressing EF1 HA-ER-α L536P; assay: cells; assay type: cell-based; parameters: Percent inhibition compared to vehicle: concentration or dose not given beside the values; settings: EF1 HA-ER-α L536P; for Percent inhibition compared to vehicle: 5-Day Incubation; for Efficacy (Emax): Day 5 relative to Day 0; for EC50: read-out: Potency (EC50; nM)
Text: as §1, §2, §3

[5] = test system: MCF-7 cells stably expressing EF1 HA-ER-α Y537N; assay: cells; assay type: cell-based; parameters: Percent inhibition compared to vehicle: concentration or dose not given beside the values; settings: EF1 HA-ER-α Y537N; for Percent inhibition compared to vehicle: 5-Day Incubation; for Efficacy (Emax): Day 5 relative to Day 0; for EC50: read-out: Potency (EC50; nM)
Text: as §1, §2, §3

[6] = test system: MCF-7 cells stably expressing UbC HA-ER-α L536R; assay: cells; assay type: cell-based; parameters: Percent inhibition compared to vehicle: concentration or dose not given beside the values; settings: UbC HA-ER-α L536R; for Efficacy (Emax): Day 5 relative to Day 0; for EC50: read-out: Potency (EC50; nM)
Text: as §1, §2, §3

[7] = test system: MCF-7 cells (negative control); assay: MCF-7 Stable Cell Line Viability (UbC HA-ER-α series); assay type: cell-based; parameters: Percent inhibition compared to vehicle: concentration or dose not given beside the values; settings: Receptor None (MCF-7 negative control)
Text: as §1, §2, §3

[8] = test system: MCF-7 cells stably expressing UbC HA-ER-α wild-type; assay: as above; assay type: cell-based; parameters: Percent inhibition compared to vehicle: concentration or dose not given beside the values; settings: UbC HA-ER-α Wild-type; for Percent inhibition compared to vehicle: 5-Day Incubation; for Efficacy (Emax): Day 5 relative to Day 0; for EC50: read-out: Potency (EC50; nM)
Text: as §1, §2, §3

[9] = Antagonist Mode, +E2, 5-Day Incubation
[10] = Antagonist Mode, −E2 (Table 27)

## CCC(=C(c1ccc(O)cc1)c1ccc(OCCN(C)C)cc1)c1ccccc1 [4-Hydroxytamoxifen]
[1]
  efficacy compared with fulvestrant and ERM 4-23 (in words): reduced efficacy on all the mutations tested
[2]; Agonist Mode, −E2
  Efficacy (Emax): 1.49 ± 0.06
  EC50: 0.531 ± 0.381 nM
[2]; [9]
  Percent inhibition compared to vehicle: 60%
[2]; Antagonist Mode, +E2
  Efficacy (Emax): 1.60 ± 0.08
  EC50: 2.32 ± 0.599 nM
[2]; [10]
  EC50: 0.531 ± 0.381 nM
[3]; Agonist Mode, −E2
  Percent inhibition compared to vehicle: 30%
  Efficacy (Emax): 3.99 ± 0.38
  EC50: 0.186 ± 0.04 nM
[3]; Antagonist Mode, +E2
  Percent inhibition compared to vehicle: 40%
  Efficacy (Emax): 4.05 ± 0.36
  EC50: 5.16 ± 0.137 nM
[3]; [10]
  EC50: 0.186 ± 0.04 nM
[4]; Agonist Mode, −E2
  Percent inhibition compared to vehicle: 58%
  Efficacy (Emax): 3.47 ± 0.03
  EC50: 4.39 ± 0.723 nM
[4]; Antagonist Mode, +E2
  Percent inhibition compared to vehicle: 60%
  Efficacy (Emax): 3.64 ± 0.26
  EC50: 9.22 ± 0.546 nM
[4]; [10]
  EC50: 4.39 ± 0.723 nM
[5]; Agonist Mode, −E2
  Percent inhibition compared to vehicle: 60%
  Efficacy (Emax): 2.43 ± 0.13
  EC50: 6.04 ± 1.36 nM
[5]; Antagonist Mode, +E2
  Percent inhibition compared to vehicle: 57%
  Efficacy (Emax): 2.39 ± 0.24
  EC50: 5.25 ± 2.84 nM
[5]; [10]
  EC50: 6.04 ± 1.36 nM
[6]; Agonist Mode, −E2
  Efficacy (Emax): 2.26 ± 0.36
  EC50: 1.06 ± 0.714 nM
[6]; [9]
  Percent inhibition compared to vehicle: 61%
[6]; Antagonist Mode, +E2
  Efficacy (Emax): 2.34 ± 0.18
  EC50: 6.09 ± 4.42 nM
[7]; Agonist Mode, −E2, 5-Day Incubation
  Percent inhibition compared to vehicle: 19%
[7]; Agonist Mode, −E2, Day 5 relative to Day 0
  Efficacy (Emax): 1.42 ± 0.43
[7]; Agonist Mode, −E2, read-out: Potency (EC50; nM)
  EC50: 263 ± 525 nM
[7]; [9]
  Percent inhibition compared to vehicle: 58%
[7]; Antagonist Mode, +E2, Day 5 relative to Day 0
  Efficacy (Emax): 1.34 ± 0.07
[7]; Antagonist Mode, +E2, read-out: Potency (EC50; nM)
  EC50: 2.47 ± 1.78 nM
[8]; Agonist Mode, −E2
  Percent inhibition compared to vehicle: 14%
  Efficacy (Emax): 1.58 ± 0.16
  EC50: 0.626 ± 0.528 nM
[8]; Antagonist Mode, +E2
  Percent inhibition compared to vehicle: 68%
  Efficacy (Emax): 1.57 ± 0.08
  EC50: 2.95 ± 2.51 nM
